Each block holds one compound with its values, some of them ahead of it.
Legend:
[1] = molecular target: T1, SUMO-activating enzyme subunit 1 (Homo sapiens, UniProt Q9UBE0); assay: Inhibition of recombinant SAE1(unknown origin)-mediated SUMOylation of RanGAP1-C2
T1 sequence (Q9UBE0 whole entry): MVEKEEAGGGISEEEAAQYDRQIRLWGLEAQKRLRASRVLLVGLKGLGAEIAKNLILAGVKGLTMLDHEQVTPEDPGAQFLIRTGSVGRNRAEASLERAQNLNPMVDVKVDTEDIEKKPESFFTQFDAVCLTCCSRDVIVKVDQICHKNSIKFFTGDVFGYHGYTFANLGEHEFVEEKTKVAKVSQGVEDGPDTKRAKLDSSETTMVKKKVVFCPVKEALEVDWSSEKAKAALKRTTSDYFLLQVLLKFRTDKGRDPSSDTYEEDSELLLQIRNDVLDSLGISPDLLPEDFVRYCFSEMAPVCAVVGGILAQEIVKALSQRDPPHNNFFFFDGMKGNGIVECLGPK

[2] = Inhibition of FLAG-tagged human recombinant UAE-catalyzed UAE-Ub thioester intermediate formation immunoblotting analysis
[3] = molecular target: T2, Ubiquitin-like modifier-activating enzyme ATG7 (Homo sapiens, UniProt O95352); assay: Inhibition of ATG7 (unknown origin) in presence of ATP
T2 sequence (O95352 whole entry): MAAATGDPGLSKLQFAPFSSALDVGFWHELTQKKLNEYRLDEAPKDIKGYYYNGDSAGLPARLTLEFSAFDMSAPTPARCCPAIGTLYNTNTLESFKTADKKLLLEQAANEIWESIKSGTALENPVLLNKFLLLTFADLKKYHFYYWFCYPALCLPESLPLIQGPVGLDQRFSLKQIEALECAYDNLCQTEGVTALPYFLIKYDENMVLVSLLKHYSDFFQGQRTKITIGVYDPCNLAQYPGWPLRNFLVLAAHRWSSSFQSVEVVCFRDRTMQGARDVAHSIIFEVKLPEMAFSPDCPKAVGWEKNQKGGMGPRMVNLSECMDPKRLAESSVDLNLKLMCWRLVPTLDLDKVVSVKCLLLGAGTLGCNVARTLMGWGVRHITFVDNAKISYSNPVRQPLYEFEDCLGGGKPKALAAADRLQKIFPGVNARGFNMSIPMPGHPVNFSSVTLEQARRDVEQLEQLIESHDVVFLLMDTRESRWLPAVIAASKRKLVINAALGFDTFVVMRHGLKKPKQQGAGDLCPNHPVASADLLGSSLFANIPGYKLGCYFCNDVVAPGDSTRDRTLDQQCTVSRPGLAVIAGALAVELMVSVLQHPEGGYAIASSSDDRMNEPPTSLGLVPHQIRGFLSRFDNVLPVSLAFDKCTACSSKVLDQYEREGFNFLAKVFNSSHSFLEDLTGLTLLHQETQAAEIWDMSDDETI

[4] = molecular target: T1, SUMO-activating enzyme subunit 1; assay: Inhibition of SAE (unknown origin) in presence of ATP
[5] = Competitive inhibition of human UAE-catalyzed ATP-PPi exchange reaction expressed in Sf9 insect cells after 60 mins in presence of 1 mM ATP
[6] = Inhibition of UAE (unknown origin) in presence of ATP; set-up: species or system Homo sapiens
[7] = molecular target: T3, Ubiquitin-like modifier-activating enzyme 7 (Homo sapiens, UniProt P41226); assay: Inhibition of UBA7 (unknown origin) in presence of ATP
T3 sequence (P41226 whole entry): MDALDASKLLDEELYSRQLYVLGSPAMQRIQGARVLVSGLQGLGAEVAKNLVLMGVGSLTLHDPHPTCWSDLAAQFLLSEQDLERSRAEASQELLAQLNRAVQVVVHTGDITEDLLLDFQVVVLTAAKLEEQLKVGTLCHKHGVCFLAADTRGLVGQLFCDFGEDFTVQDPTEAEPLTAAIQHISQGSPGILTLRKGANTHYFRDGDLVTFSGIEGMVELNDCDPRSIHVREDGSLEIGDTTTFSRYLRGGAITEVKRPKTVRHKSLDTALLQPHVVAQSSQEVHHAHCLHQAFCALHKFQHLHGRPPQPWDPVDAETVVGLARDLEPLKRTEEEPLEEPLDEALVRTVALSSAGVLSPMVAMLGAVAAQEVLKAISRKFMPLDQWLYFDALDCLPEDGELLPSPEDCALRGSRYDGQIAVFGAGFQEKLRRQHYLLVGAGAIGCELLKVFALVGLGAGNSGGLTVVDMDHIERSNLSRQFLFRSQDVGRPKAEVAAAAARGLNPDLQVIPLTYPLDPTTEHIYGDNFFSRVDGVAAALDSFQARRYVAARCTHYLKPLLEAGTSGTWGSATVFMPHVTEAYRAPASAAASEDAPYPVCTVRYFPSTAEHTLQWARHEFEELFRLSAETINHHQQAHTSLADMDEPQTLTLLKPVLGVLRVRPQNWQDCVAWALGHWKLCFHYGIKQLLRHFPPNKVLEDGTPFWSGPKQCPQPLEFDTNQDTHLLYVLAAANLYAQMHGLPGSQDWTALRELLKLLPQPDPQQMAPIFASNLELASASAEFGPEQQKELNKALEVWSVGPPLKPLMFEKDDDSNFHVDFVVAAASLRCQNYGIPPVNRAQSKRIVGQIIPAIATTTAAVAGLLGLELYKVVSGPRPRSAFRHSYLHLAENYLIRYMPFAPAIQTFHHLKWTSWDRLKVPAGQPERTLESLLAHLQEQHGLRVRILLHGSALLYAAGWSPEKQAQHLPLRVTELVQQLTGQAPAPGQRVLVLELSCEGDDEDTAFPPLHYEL

[8] = Inhibition of human UAE-catalyzed E1-E2 transthiolation reaction expressed in Sf9 insect cells after 90 mins by TR-FRET assay
[9] = molecular target: T4, Ubiquitin-like modifier-activating enzyme 6 (Homo sapiens, UniProt A0AVT1); assay: Inhibition of UBA6 (unknown origin) in presence of ATP
T4 sequence (A0AVT1 whole entry): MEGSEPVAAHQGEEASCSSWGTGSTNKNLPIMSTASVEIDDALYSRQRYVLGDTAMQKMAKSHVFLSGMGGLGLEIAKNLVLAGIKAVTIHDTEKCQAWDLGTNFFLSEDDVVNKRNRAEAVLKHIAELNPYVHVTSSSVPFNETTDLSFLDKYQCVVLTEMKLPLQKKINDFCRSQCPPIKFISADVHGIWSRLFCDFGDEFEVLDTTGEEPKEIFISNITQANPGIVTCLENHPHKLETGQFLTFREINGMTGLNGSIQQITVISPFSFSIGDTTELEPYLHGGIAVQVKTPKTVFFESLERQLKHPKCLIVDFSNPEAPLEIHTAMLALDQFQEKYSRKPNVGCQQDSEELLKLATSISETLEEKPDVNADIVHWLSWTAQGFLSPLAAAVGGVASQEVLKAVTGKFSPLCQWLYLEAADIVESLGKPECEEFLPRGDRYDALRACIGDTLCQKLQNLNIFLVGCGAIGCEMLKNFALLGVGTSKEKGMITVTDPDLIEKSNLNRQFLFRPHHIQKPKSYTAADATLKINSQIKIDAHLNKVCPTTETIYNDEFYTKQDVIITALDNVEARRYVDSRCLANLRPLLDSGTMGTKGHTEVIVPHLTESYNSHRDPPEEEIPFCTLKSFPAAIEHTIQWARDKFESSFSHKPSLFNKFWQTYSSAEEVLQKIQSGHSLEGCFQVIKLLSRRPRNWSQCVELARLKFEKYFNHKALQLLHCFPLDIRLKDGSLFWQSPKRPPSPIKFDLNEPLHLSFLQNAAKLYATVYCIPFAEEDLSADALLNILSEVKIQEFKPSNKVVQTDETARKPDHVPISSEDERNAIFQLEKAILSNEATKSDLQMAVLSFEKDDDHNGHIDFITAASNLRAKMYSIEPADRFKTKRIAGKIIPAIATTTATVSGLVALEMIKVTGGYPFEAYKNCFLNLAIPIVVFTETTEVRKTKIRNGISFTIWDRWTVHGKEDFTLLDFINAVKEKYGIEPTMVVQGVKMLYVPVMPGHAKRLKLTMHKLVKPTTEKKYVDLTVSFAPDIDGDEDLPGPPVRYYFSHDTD

[10] = Competitive inhibition of human UAE-catalyzed ATP-PPi exchange reaction expressed in Sf9 insect cells after 60 mins in presence of 10 uM ATP
Caco-2 = assay: Cytotoxicity against human Caco2 cells by MTT assay; format: functional, cell-based
[11] = molecular target: T5, NEDD8-activating enzyme E1 catalytic subunit (Homo sapiens, UniProt Q8TBC4); assay: Inhibition of NAE (unknown origin)-catalyzed NEDD8-Ubcl2 intermediate formation by densitometric analysis
T5 sequence (Q8TBC4 whole entry): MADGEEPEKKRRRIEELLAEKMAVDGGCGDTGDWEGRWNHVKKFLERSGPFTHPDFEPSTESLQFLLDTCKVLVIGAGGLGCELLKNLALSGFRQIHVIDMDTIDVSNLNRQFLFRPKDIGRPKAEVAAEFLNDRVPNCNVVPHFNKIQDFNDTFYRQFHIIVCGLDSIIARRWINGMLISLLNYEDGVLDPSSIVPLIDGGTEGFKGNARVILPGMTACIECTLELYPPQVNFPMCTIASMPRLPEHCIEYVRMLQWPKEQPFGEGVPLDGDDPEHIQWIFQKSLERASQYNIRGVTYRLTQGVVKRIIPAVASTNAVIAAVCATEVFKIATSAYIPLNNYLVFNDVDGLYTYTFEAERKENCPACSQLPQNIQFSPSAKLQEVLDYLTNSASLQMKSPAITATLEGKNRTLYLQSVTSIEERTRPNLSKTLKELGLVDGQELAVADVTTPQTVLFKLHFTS

[12] = Inhibition of N-terminal GST-tagged human UAE-catalyzed UAE-Ub thioester intermediate formation expressed in HI5 insect cells after 15 mins by SDS-PAGE analysis
[13] = molecular target: T1, SUMO-activating enzyme subunit 1; assay: Inhibition of human SAE by fluorescence assay
[14] = Inhibition of UAE-catalyzed UAE-Ub thioester intermediate formation in human RPE cells by immunoblotting analysis; format: cell-based

IC50 [1]: 3 µM
SMILES: CCCCCC/C=C\CCCCCCCc1cccc(O)c1C(=O)O [GINGKOLIC ACID]

IC50 [2]: 50 µM
SMILES: C[C@@H](CC(=O)NC(=O)c1coc(/C=C/CCCCCCCCC(=O)O)cc1=O)C(=O)O [HIMEIC ACID A]

IC50 [3]: > 100 µM
IC50 [6]: 5.2 µM
IC50 [7]: 4 µM
IC50 [9]: 0.92 µM
SMILES: NS(=O)(=O)OC[C@H]1O[C@@H](n2cnc3c(N[C@H]4CCc5ccccc54)ncnc32)[C@H](O)[C@@H]1O
IC50 [4]: 6.4 µM
IC50 [5]: 5 µM
IC50 [8]: 0.0014 µM
IC50 [10]: 0.0102 µM

IC50 [11]: 0.8 µM
SMILES: O=C(O)CNC(=O)CNC(=O)COc1ccc2nc3n(c(=O)c2c1)CCC3
IC50 (Caco-2): 10 µM

SMILES: CCCCCCCC(=O)SCC/C=C/[C@@H]1CC(=O)NCc2nc(cs2)C2=N[C@@](C)(CS2)C(=O)N[C@@H](C(C)C)C(=O)O1 [LARGAZOLE]
IC50 [12]: 29 µM
IC50 [13]: 450 µM

SMILES: CCOC(=O)N1CCN(/[N+]([O-])=N/Oc2ccc([N+](=O)[O-])cc2[N+](=O)[O-])CC1
IC50 [14]: 2 µM
